Assay results from paper PMC9030932, “Development of Dibenzothiazepine Derivatives as Multifunctional Compounds for Neuropathic Pain” (Pharmaceuticals, 2022).
“Also recorded” adds a separate entry of the source. Read-outs that look alike come from different tables or passages of the source. Marks after values point to notes of the source that are not given here.

Assays:
[1] = tested on: spinal-nerve-ligated neuropathic pain rats; assay: Spinal nerve ligation (SNL) neuropathic pain model, von Frey paw withdrawal threshold, intrathecal; format: in vivo, rat; details: for maximum possible effect (MPE): highest dose (12: 100 μg; 17: 30 μg); for effect on paw withdrawal threshold (PWT) / allodynia: vs vehicle
Experimental: Adult male Sprague-Dawley rats weighing 150–180 g each were used. The animals were housed in a room with a constant temperature of 22–23 °C and an alternating 12-h light/dark cycle, with unrestricted access to food and water. Implantation of intrathecal catheters was performed for drug administration under sevoflurane anesthesia, as described previously. Seven days of recovery were allowed after surgery before the use of catheterized rats in the experiments. Spinal nerve-ligated neuropathic pain was induced by tightly ligating the left L5 and L6 spinal nerves, as described previously. Only rats showing allodynia after either spinal nerve ligation (withdrawal threshold < 4 g) were studied. The von Frey test was used to determine the 50% probability paw withdrawal threshold (PWT), using the up and down method, in which a positive response was defined as brisk withdrawal or paw flinching during or immediately after application of a filament. On experimentation days (12 days after SNL), rats were acclimatized in a box with a wire mesh floor for at least 20 min before being randomly allocated to one of the experimental groups. All experiments were carried out by an observer who was blind to the treatments. To investigate the effects of 12 (30 or 100 μg) and 17 (10 or 30 μg), it was supplied intrathecally following post-injury baseline PWT determination in rats with either spinal nerve-ligated neuropathic pain. Withdrawal thresholds were determined at 15, 30, 60, 90, 120, 150, and 180 min after intrathecal administration.
All data are expressed as means ± SEM. The time-response data are presented as the withdrawal threshold in grams. The dose-response data are presented as a percentage of the maximum possible effect (%MPE): %MPE = ((post-drug threshold−post-injury baseline threshold)/(cutoff threshold−post-injury baseline threshold)) × 100. Time and dose-response data were analyzed by a one-way and two-way repeated measures analysis of variance (ANOVA), with a Bonferroni’s post hoc test. A p-value < 0.05 was considered statistically significant.

[2] = biological target: human serotonin transporter (hSERT) (Homo sapiens, UniProt P31645); assay: Neurotransmitter transporter uptake assay, HEK-hSERT; format: cell-based
hOPRM1 receptor = biological target: T1, hOPRM1 receptor (Homo sapiens, UniProt P35372); assay: PathHunter CHO-K1 OPRM1 β-arrestin recruitment assay; format: cell-based
T1 construct: host or cells: CHO-K1

[3] = biological target: human dopamine transporter (hDAT) (Homo sapiens, UniProt Q01959); assay: Neurotransmitter transporter uptake assay, HEK-hDAT; format: cell-based
[4] = biological target: T2, human κ-opioid receptor (OPRK1) (Homo sapiens, UniProt P41145); assay: Intracellular calcium mobilization (FLIPR Tetra), HEK-hKOR agonism; format: cell-based; details: for agonistic activity at the κ-opioid receptor: HEK-hKOR calcium mobilization; for activation at 10 µM: read-out: % Stimulation at 10 μM, OPRK1 Agonism against DynorphinA (370 nM)
T2 construct: host or cells: HEK293 (constitutive expression)
Experimental: Intracellular calcium mobilization was measured by using FLIPR Tetra System (Molecular Devices, Sunnyvale, CA, USA) in accordance with manufacturer’s instruction. […] Subsequently, the plate was transferred to the FLIPR tetra system for treating 50 μL of the 5× compounds diluted in loading buffer and reading intracellular calcium mobilization. The final concentration of DMSO was 0.1%. […] A dose response curve was generated with the changes in Relative Fluorescence Units (∆RFU) versus Log10 dose.
Experimental details for Biology
Cell culture. HEK293 cells stably expressing human DA transporter (HEK-hDAT), human NE transporter (HEK-hNET) and human serotonin transporter (HEK-hSERT) were kindly provided by Professor Bryan Roth (University of North Carolina at Chapel Hill). And HEK293 cells constitutively expressing human κ- or μ- opioid receptor (HEK-hKOR_NM000912 or HEK-hMOR_NM000914) were constructed by Professor Ki Duk Park (in Korea Institute of Science […]
Europins DiscoveRx (Fremont, CA, USA). Cells were mainta ined in Dulbecco's modified Eagle's medium (HyClone, Logan, UT, USA) supplemented with 10%(v/v) fetal bovine serum (FBS, HyClone, Logan, UT, USA), penicillin (100 U/mL), and streptomycin (100 μg/mL) in the […]
for HEK-hDAT, HEK-hNET, HEK-hSERT, HEK-hKOR and HEK-hMOR respectively) in a humidified 5% CO2 incubator at 37 °C. In case of both HEK-hKOR and HEK-hMOR, cells were additionally maintained in 0.2 mg/mL hygromycin B, 1 μg/mL puromycin B, 1× non-essential amino acids. The cells were subcultured every 3-4 days. […]

rats = assay: Behavioral responses: motor functions (righting, placing/stepping reflexes), pinna and corneal reflexes after intrathecal administration; format: in vivo, rat; details: highest doses, examined for 3 h
Experimental: Motor functions were assessed by examining righting and placing/stepping reflexes. […] The […] was evoked by the rat drawing the dorsum of either hind paw across the edge of a table. Normally, rats attempt to place a paw into a position that enables walking. The pinna and corneal reflexes were evoked by stimulating the ear canal or cornea, respectively, with a string. Normally, rats spontaneously shake their heads or blink. Normality of behavior was classified as present or absent. To evaluate the behavioral changes induced by compounds 12 and 17, additional rats were examined for 3 h after intrathecal administration of the highest doses of the agents used. The motor function and pinna and corneal reflexes were normal after intrathecal administration of compounds 12 and 17 at the highest doses. Overt abnormal behavioral changes were not observed.

[5] = In vitro metabolic stability, human; format: in vitro ADME; details: for in vitro metabolic stability: S9 microsomal fraction, 30 min, Table S1; for recovery at 30 min, 1 µM: human, pH 7.4, % remaining after 30 min incubation with S9 microsomal fraction
Experimental: (§1) Experimental details for Biology […]
(§2) Microsomal stability. The metabolic stability of compounds was evaluated in rat liver microsomes (RLM). Microsomes (0.5 mg/ml) and test compound (1 µM) in 100 mM potassium phosphate buffer (pH 7.4) were preincubated with shaking (100 rpm) for 5 min at 37 °C. The metabolic reaction was initiated by the addition of an NADPH generating system (60 mM potassium phosphate buffer pH 7.4, 1.3 mM NADP, 3.3 mM glucose-6-phosphate, 0.3 µL glucose-6-phosphate dehydrogenase (0.4 U/mL), and 3.3 mM magnesium chloride) and incubated at 37 °C. Aliquots of 100 µL were withdrawn at 0, 10, 20, 30 and 60 min, and 2 volumes of ice-cold acetonitrile (ACN) were added to terminate the reaction. After mixing by vortex and centrifugation (14000 rpm) for 15 min at 4 °C, the supernatant was transferred to liquid chromatography vials and analyzed by an LC-MS/MS system.
(§3) Table S1. In vitro metabolic stability of selected compounds.
(§4) Compounds Human Rat Mouse […]
(§5) a% remaining after 30 min incubation with S9 microsomal fraction.

[6] = In vitro metabolic stability, mouse; format: in vitro ADME; details: pH 7.4, % remaining after 30 min incubation with S9 microsomal fraction
Experimental: as §1, §2, §3, §4, §5

[7] = In vitro metabolic stability, rat; format: in vitro ADME; details: pH 7.4, % remaining after 30 min incubation with S9 microsomal fraction
Experimental: as §1, §2, §3, §4, §5

[8] = biological target: T3, human μ-opioid receptor (OPRM1) (Homo sapiens, UniProt P35372); assay: Intracellular calcium mobilization (FLIPR Tetra), HEK-hMOR agonism; format: cell-based; details: for agonistic activity at the μ-opioid receptor: compared to DAMGO
T3 construct: host or cells: HEK293 (constitutive expression)

[9] = biological target: human norepinephrine transporter (hNET) (Homo sapiens, UniProt P23975); assay: Neurotransmitter transporter uptake assay, HEK-hNET; format: cell-based
mMOR = tested on: mMOR; set-up: method as in earlier work; details: ref 21 (Gassaway et al.); cited from earlier work
hMOR = tested on: hMOR; set-up: method as in earlier work; details: ref 21 (Gassaway et al.); cited from earlier work

T1 sequence (P35372 whole entry): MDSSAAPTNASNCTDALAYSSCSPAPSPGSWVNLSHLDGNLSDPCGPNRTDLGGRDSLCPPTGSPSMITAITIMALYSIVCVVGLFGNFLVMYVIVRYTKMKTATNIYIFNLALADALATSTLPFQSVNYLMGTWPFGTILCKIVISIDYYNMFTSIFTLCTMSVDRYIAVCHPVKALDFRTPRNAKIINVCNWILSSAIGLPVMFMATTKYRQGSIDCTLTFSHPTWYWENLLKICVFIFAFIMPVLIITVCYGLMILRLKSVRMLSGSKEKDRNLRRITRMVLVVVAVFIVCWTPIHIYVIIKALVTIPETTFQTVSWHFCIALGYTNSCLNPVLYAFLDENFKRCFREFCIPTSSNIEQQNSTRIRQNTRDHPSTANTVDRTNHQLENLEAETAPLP
T3 sequence (P35372 whole entry): as above
T2 sequence (P41145 whole entry): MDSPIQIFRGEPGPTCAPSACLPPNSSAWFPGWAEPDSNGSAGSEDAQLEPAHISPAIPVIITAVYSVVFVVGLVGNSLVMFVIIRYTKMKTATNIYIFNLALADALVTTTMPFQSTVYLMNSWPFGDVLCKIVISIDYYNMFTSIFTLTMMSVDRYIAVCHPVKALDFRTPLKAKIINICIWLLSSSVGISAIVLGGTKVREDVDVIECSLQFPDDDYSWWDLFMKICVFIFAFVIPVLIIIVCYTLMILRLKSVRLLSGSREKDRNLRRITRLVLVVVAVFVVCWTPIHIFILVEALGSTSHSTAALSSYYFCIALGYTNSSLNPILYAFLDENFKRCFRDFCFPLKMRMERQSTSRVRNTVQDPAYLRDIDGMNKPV
Sequence of human serotonin transporter (hSERT) (P31645 whole entry): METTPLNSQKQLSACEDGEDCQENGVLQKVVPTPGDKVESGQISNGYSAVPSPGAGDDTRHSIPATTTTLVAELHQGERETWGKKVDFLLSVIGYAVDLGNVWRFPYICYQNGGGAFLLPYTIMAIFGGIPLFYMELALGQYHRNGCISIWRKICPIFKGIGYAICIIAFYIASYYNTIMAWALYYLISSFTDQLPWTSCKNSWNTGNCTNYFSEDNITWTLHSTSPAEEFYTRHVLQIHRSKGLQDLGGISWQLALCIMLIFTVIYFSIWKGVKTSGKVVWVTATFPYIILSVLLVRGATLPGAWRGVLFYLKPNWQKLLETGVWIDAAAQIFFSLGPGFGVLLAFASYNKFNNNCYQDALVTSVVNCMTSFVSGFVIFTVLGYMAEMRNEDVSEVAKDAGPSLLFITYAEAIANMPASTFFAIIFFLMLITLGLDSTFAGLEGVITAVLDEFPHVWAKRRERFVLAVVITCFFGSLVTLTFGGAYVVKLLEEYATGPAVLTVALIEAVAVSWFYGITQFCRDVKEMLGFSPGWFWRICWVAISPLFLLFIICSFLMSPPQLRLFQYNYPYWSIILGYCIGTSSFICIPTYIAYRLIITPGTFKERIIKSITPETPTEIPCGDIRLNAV
Sequence of human dopamine transporter (hDAT) (Q01959 whole entry): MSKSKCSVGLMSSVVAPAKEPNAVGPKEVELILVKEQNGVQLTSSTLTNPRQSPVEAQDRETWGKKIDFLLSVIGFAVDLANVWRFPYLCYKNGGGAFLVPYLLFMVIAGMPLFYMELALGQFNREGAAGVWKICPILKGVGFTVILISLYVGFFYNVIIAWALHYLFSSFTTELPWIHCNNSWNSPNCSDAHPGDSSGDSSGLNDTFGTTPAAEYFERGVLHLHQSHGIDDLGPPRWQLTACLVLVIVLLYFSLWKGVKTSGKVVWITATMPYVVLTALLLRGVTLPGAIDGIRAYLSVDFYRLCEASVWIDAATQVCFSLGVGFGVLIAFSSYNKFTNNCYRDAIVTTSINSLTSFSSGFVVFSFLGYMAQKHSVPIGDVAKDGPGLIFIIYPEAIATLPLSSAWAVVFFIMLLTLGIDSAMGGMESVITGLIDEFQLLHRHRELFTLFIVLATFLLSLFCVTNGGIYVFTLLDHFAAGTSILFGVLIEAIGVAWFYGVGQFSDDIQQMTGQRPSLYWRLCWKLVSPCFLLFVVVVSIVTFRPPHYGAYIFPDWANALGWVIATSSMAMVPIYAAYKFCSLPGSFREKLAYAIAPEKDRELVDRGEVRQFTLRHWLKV
Sequence of human norepinephrine transporter (hNET) (P23975 whole entry): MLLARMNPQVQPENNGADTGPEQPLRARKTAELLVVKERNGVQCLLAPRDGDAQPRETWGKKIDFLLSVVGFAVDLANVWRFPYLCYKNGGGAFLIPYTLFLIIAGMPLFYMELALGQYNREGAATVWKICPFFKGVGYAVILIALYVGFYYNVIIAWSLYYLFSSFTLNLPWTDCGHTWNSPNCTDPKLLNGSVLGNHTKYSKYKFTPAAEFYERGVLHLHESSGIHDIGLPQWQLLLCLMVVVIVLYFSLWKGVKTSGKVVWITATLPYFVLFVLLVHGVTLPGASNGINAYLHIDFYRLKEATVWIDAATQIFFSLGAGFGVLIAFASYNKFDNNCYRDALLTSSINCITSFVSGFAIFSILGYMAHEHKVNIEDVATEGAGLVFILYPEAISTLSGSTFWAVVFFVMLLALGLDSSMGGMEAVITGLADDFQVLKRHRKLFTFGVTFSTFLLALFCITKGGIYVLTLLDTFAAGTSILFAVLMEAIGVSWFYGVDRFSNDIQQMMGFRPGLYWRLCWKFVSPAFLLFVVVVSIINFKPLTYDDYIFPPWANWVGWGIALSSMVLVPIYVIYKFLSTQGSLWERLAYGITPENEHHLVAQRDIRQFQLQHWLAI

SMILES | maximum possible effect (MPE) [1] | effect on paw withdrawal threshold (PWT) / allodynia [1] | EC50 (hOPRM1 receptor) | IC50 [3] | agonistic activity at the κ-opioid receptor [4] | activation at 10 µM [4] | motor function and pinna and corneal reflexes (rats) | in vitro metabolic stability [5] | recovery at 30 min, 1 µM [5] | recovery at 30 min, 1 µM [6] | recovery at 30 min, 1 µM [7] | EC50 [8] | agonistic activity at the μ-opioid receptor ([8]; HEK-hMOR calcium mobilization) | also measured
CN1c2ccccc2C(NCCCCCCC(=O)NCCc2c[nH]c3ccc(O)cc23)c2ccc(Cl)cc2S1(=O)=O (centres unmarked) [Compound 12, 7-((3-chloro-6-methyl-5,5-dioxido-6,11-dihydrodibenzo[c,f][1,2]thiazepin-11-yl)amino)-N-(2-(5-hydroxy-1H-indol-3-yl)ethyl)heptanamide] | 73% | dose-dependent increase in the withdrawal threshold; also recorded: increased the paw withdrawal threshold (PWT) compared to the vehicle | 134 ± 12 nM | 9660 ± 1000 nM | did not show agonistic activities | < 10% | normal | extremely low | 5% | 5% | 6% | 1200 ± 244 nM | partial agonisms | IC50 [2]: 258 ± 57 nM; inhibition at 10 µM ([9]; 10 μM, HEK-hNET, mean ± SEM, n = 3–6, read-out: % Inhibition at 10 μM hNET): 30.1 ± 0.87%; melting point: 92 to 95 °C
CN1c2ccccc2C(NCCCCCCCNCCc2c[nH]c3ccc(O)cc23)c2ccc(Cl)cc2S1(=O)=O (centres unmarked) [Compound 17, 3-chloro-11-((7-((2-(5-hydroxy-1H-indol-3-yl)ethyl)amino)heptyl)amino)-6-methyl-6,11-dihydrodibenzo[c,f][1,2]thiazepine 5,5-dioxide] | 83% | increased mechanical withdrawal threshold compared to vehicle; also recorded: significantly reduced allodynia; also recorded: increased the PWT; also recorded: showed antiallodynic effects at the spinal level | 1560 ± 195 nM | 2010 ± 650 nM | no influence; also recorded: did not show agonistic activities | < 10% | normal | extremely low | 0% | 1% | 1% | 384 ± 25 nM | partial agonisms | IC50 ([2]; HEK-hSERT, neurotransmitter uptake, mean ± SEM, n = 3–6, read-out: IC50 hSERT): 70 ± 9 nM; fold higher hSERT inhibitory activity than compound 12 ([2]; IC50 ratio vs compound 12): 3 fold; β-arrestin recruitment (hOPRM1 receptor; CHO-K1 OPRM1): lower levels of β-arrestin recruitment than compound 12; fold increase in Ca2+ efflux in HEK-hMOR ([8]; HEK-hMOR): 5.9 fold; IC50 [9]: 154 ± 7 nM
CN1c2ccccc2C(NCCCCCCC(=O)O)c2ccc(Cl)cc2S1(=O)=O (centres unmarked) [Tianeptine, reference compound] | – | – | > 5000 nM | – | did not show appreciable biological activities | < 10% | – | – | – | – | – | – | did not show appreciable biological activities | EC50 (mMOR): 641 nM; % Stimulation at 10 μM, OPRM1 Agonism against DAMGO (3.9 μM) ([8]; 10 μM, HEK-hMOR calcium mobilization, normalized to Emax of DAMGO at 3.9 μM): <10% ^b; EC50 (hMOR): 194 nM
